What is called ΔTm is the change in melting temperature against a reference sample.

The record followed here is publication PMC8776063, “Aurora Kinase A Is Involved in Controlling the Localization of Aquaporin-2 in Renal Principal Cells” (International Journal of Molecular Sciences, 2022).

One test has as its target T1, GAK (Homo sapiens, UniProt O14976).
T1 construct: purchased in-house thermal shift (DSF) kinase panel (SGC Frankfurt); Promega NanoBRET for AURKA/B/C
T1 sequence (O14976 14-351): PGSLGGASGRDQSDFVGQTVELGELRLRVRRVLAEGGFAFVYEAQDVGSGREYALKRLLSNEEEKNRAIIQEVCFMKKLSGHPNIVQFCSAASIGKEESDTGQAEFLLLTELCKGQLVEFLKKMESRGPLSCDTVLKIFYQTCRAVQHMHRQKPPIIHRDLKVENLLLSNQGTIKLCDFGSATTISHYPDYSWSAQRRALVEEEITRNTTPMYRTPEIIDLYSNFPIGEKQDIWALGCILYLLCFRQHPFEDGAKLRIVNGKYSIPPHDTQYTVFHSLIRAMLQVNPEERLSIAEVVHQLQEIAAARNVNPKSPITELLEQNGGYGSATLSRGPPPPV
Kind of test: Thermal shift assay. The note with it: read-out: ΔTm GAK. It is filed as binding.

For another test, the target named is T2, STK38L (Homo sapiens, UniProt Q9Y2H1).
T2 construct: purchased in-house thermal shift (DSF) kinase panel (SGC Frankfurt); Promega NanoBRET for AURKA/B/C
T2 sequence (Q9Y2H1 90-453): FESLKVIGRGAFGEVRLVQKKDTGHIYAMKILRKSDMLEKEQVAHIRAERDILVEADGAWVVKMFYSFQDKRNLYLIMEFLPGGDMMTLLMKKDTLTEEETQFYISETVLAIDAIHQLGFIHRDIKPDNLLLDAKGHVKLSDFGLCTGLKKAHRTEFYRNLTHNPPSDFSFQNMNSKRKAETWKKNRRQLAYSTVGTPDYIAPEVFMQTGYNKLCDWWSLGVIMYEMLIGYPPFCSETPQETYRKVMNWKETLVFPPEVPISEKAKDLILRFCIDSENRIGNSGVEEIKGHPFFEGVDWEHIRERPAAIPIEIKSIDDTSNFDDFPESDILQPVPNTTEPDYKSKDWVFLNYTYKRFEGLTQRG
As to the kind of experiment: Thermal shift assay. To be noted: read-out: ΔTm STK38L. It is filed as binding.

The next test concerns the target T3, MAPK8 (Homo sapiens, UniProt P45983).
T3 construct: purchased in-house thermal shift (DSF) kinase panel (SGC Frankfurt); Promega NanoBRET for AURKA/B/C
Kind of test: Thermal shift assay. The class given is binding. The note with it: read-out: ΔTm MAPK8.

In the next test the target is T4, MAP2K6 (Homo sapiens, UniProt P52564).
T4 construct: purchased in-house thermal shift (DSF) kinase panel (SGC Frankfurt); Promega NanoBRET for AURKA/B/C
T4 sequence (P52564 47-334): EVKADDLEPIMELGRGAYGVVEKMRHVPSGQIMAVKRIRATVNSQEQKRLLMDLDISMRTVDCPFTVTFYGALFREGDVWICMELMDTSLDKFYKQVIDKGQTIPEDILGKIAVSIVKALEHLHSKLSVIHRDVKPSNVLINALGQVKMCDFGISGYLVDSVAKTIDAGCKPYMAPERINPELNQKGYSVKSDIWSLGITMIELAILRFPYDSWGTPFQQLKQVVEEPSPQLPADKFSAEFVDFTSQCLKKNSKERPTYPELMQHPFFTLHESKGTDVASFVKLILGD
Kind of test: Thermal shift assay. It is filed as binding. The note with it: read-out: ΔTm MAP2K6.

The next test addresses T5, ABL1 (Homo sapiens, UniProt P00519).
T5 construct: purchased in-house thermal shift (DSF) kinase panel (SGC Frankfurt); Promega NanoBRET for AURKA/B/C
T5 sequence (P00519 229-512): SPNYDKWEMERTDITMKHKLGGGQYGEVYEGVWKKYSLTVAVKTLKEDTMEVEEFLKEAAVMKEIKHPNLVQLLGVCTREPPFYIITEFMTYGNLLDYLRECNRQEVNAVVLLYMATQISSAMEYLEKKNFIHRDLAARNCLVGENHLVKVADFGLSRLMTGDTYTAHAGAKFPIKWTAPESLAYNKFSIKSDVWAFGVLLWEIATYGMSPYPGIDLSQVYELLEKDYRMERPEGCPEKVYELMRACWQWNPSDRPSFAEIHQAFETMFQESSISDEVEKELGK
Kind of test: Thermal shift assay. It is filed as binding. To be noted: read-out: ΔTm ABL1.

For the next test, the target named is T6, DYRK1A (Homo sapiens, UniProt Q13627).
T6 construct: purchased in-house thermal shift (DSF) kinase panel (SGC Frankfurt); Promega NanoBRET for AURKA/B/C
As to the kind of experiment: Thermal shift assay. The note with it: read-out: ΔTm DYRK1A. It is filed as binding.

For a further test, the system named is primary IMCD cells. Kind of test: AQP2 redistribution, immunofluorescence microscopy. To be noted: for inhibition of the AVP-induced redistribution of AQP2 to the plasma membrane: 1 h (Aurora-A inhibitor I 1-30 µM).
In the next test the target is T7, PAK4 (Homo sapiens, UniProt O96013).
T7 construct: purchased in-house thermal shift (DSF) kinase panel (SGC Frankfurt); Promega NanoBRET for AURKA/B/C
T7 sequence (O96013 291-591): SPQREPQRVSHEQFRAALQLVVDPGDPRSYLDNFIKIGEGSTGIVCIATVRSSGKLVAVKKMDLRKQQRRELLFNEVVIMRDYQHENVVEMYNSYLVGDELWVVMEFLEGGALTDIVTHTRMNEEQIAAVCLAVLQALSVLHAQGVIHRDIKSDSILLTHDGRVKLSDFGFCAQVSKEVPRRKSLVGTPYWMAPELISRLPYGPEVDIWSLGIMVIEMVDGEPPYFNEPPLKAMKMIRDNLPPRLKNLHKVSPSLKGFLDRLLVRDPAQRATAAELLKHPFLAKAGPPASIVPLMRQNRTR
Kind of test: Thermal shift assay. The class given is binding. The note with it: read-out: ΔTm PAK4.

The next test deals with T8, AURKC (Homo sapiens, UniProt Q9UQB9).
T8 construct: full-length wild-type AURKA, AURKB, and AURKC were obtained as plasmids cloned in frame with a C-terminal NanoLuc-fusion; host or cells: HEK293T
T8 sequence (Q9UQB9 1-309): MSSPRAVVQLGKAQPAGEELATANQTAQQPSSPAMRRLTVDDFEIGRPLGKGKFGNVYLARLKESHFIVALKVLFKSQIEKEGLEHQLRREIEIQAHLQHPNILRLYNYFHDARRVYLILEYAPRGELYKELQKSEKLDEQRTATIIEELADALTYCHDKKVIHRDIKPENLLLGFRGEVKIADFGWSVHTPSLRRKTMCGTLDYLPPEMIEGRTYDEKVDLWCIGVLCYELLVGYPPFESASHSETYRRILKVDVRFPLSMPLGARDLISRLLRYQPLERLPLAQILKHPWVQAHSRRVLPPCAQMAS
As to the kind of experiment: NanoBRET assay in HEK293T cells. It is filed as cell-based. A general note: BRET reads energy transfer from a luciferase to a nearby fluorophore.

Another test concerns the target T9, DAPK3 (Homo sapiens, UniProt O43293).
T9 construct: purchased in-house thermal shift (DSF) kinase panel (SGC Frankfurt); Promega NanoBRET for AURKA/B/C
As to the kind of experiment: Thermal shift assay. It is filed as binding. To be noted: read-out: ΔTm DAPK3.

Another test addresses T10, AURKA (Homo sapiens, UniProt O14965).
T10 construct: full-length wild-type AURKA, AURKB, and AURKC were obtained as plasmids cloned in frame with a C-terminal NanoLuc-fusion; host or cells: HEK293T
T10 sequence (O14965 1-403): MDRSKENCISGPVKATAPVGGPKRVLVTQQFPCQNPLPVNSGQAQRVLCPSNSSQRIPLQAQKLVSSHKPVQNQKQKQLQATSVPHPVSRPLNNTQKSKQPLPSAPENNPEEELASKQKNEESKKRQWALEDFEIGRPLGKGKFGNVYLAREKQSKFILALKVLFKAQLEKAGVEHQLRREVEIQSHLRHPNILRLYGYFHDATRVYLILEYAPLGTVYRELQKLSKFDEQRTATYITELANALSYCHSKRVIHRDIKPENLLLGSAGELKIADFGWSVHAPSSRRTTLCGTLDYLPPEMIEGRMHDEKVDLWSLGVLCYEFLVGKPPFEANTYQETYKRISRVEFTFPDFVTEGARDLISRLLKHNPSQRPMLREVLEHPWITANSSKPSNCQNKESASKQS
Kind of test: NanoBRET assay in HEK293T cells. The class given is cell-based.

Another test deals with T11, STK10 (Homo sapiens, UniProt O94804).
T11 construct: purchased in-house thermal shift (DSF) kinase panel (SGC Frankfurt); Promega NanoBRET for AURKA/B/C
T11 sequence (O94804 18-317): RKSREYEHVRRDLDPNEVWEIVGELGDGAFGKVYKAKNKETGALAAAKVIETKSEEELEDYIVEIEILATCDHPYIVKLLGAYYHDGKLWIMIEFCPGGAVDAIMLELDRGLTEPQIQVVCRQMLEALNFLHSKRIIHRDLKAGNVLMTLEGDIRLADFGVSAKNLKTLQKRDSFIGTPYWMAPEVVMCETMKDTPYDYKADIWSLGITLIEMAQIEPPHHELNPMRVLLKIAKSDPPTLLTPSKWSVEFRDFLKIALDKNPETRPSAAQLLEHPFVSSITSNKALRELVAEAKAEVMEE
As to the kind of experiment: Thermal shift assay. It is filed as binding. To be noted: read-out: ΔTm STK10.

In the next test the target is T12, MAP2K1 (Homo sapiens, UniProt Q02750).
T12 construct: purchased in-house thermal shift (DSF) kinase panel (SGC Frankfurt); Promega NanoBRET for AURKA/B/C
T12 sequence (Q02750 68-361): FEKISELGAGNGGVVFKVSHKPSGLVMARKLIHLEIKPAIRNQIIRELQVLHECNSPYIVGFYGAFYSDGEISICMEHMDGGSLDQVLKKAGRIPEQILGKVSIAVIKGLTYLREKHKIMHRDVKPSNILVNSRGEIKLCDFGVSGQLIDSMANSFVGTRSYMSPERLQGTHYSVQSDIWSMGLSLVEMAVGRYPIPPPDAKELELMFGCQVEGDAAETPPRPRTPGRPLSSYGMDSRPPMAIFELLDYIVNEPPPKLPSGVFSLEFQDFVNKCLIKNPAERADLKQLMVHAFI
Kind of test: Thermal shift assay. The class given is binding. The note with it: read-out: ΔTm MAP2K1.

The mark [1] stands for this setting: compound 20 µM, AVP 100 nM, 30 min.
Setting [2] is: NanoBRET, HEK293T cells overexpressing the kinase, Table 2, read-out: AURKA IC50.
Where [3] appears, read: NanoBRET, n = 2, mean, Figure 6B, read-out: affinity to intracellular AURKC.

Like-named read-outs stand apart in the source and are kept apart here.

T9 sequence (O43293 9-289): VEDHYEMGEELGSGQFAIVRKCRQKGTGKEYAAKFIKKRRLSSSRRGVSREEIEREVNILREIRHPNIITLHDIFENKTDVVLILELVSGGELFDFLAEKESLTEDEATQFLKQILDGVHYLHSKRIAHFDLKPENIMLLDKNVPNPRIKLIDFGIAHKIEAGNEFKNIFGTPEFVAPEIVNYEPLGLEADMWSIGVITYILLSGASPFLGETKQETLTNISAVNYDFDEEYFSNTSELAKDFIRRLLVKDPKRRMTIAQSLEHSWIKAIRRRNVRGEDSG
T3 sequence (P45983 1-364): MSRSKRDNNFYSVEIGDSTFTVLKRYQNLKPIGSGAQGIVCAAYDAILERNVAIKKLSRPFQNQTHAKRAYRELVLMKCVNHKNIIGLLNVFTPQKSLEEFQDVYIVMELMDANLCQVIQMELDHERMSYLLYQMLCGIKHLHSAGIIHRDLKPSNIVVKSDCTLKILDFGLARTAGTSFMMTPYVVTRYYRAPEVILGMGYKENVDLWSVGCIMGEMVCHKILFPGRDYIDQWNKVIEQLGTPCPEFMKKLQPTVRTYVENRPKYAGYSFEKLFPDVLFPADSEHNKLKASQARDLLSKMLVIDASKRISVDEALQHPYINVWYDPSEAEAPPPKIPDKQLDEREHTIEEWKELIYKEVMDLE

As to `CCN1CCN(C(=O)Cc2ccc(Nc3ncc(F)c(Nc4ccc(C(=O)Nc5ccccc5Cl)cc4)n3)cc2)CC1` [Aurora-A inhibitor I, reference compound], the ΔTm at 10 µM on GAK amounted to 5 °C; on STK38L, 2.1 °C; at MAPK8 it was 3.7 °C; on MAP2K6 it was 0.6 °C; on ABL1 it was 3.1 °C; on DYRK1A, 0.4 °C. Further, the ΔTm at 10 µM at PAK4 came to 0.8 °C; on DAPK3, 2.8 °C; on STK10 it was 3.8 °C; on MAP2K1, 0.2 °C. For the same compound, the “effective concentration for inhibition of AQP2 redistribution” value in the test on primary IMCD cells (1, 10 or 30 µM, 1 h, AVP 100 nM, 30 min) was “greater than 1 µM”. In addition, in the test on primary IMCD cells (setting [1]), the “inhibition of the AVP-induced redistribution of AQP2 to the plasma membrane” value (shortened to “inhibition … to the plasma membrane”) is “inhibits”. The results for the IC50 at AURKC and against AURKA were more than 50 µM and 0.183 µM, respectively.

On to `CCN1CCN(C(=O)Cc2ccc(Nc3ncc(F)c(Nc4ccc(C(=O)O)cc4)n3)cc2)CC1` [ERJ2-12], for which the ΔTm at 10 µM on GAK (compound 10 µM, n = 3) is 2.7 °C; at STK38L (compound 10 µM, n = 3) it was 0.2 °C; on MAPK8 (compound 10 µM, n = 3), 4.2 °C; at MAP2K6 (compound 10 µM, n = 3) it was 0.8 °C; at ABL1 (compound 10 µM, n = 3), 2.6 °C; at DYRK1A (compound 10 µM, n = 3), -1.3 °C. The ΔTm at 10 µM on PAK4 (compound 10 µM, n = 3) is 0.1 °C; on DAPK3 (compound 10 µM, n = 3), 0.7 °C; on STK10 (compound 10 µM, n = 3) it was 2.2 °C; at MAP2K1 (compound 10 µM, n = 3), -0.1 °C. Further, in the test with primary IMCD cells (setting [1]), the “inhibition … to the plasma membrane” value is recorded as “significantly differed”. The IC50 on AURKC (NanoBRET, n = 2, Figure 6B, bounds, read-out: affinity to intracellular AURKC) is more than 50 µM; at AURKA (setting [2]) it was more than 50 µM.

On to `NC(=O)Cc1ccc(Nc2ncc(F)c(Nc3ccc(C(=O)Nc4ccccc4Cl)cc3)n2)cc1` [ERJ2-06], for which the ΔTm at 10 µM on GAK (compound 10 µM, n = 3) was 5.1 °C; at STK38L (compound 10 µM, n = 3), 2.5 °C; at MAPK8 (compound 10 µM, n = 3), 3.7 °C; at MAP2K6 (compound 10 µM, n = 3), 0.8 °C; at ABL1 (compound 10 µM, n = 3), 1.7 °C; at DYRK1A (compound 10 µM, n = 3), 0.8 °C. Also, the shift in melting temperature (ΔTm) at 10 µM on PAK4 (compound 10 µM, n = 3) was determined as 0.3 °C; on DAPK3 (compound 10 µM, n = 3), 4.8 °C; at STK10 (compound 10 µM, n = 3) it was 1.4 °C; at MAP2K1 (compound 10 µM, n = 3), 0 °C. Moreover, in the test on primary IMCD cells (setting [1]), the “inhibition … to the plasma membrane” value is “no significant difference between resting and AVP-stimulated cells”. The IC50 at AURKC (setting [3]) worked out at 12 µM; on AURKA (setting [2]) it was 0.165 µM.

For `O=C(Cc1ccc(Nc2ncc(F)c(Nc3ccc(C(=O)Nc4ccccc4Cl)cc3)n2)cc1)NCCN1CCOCC1` [ERJ2-04], the ΔTm at 10 µM at GAK (compound 10 µM, n = 3) is 4.5 °C; on STK38L (compound 10 µM, n = 3) it was 1.5 °C; at MAPK8 (compound 10 µM, n = 3), 3.2 °C; on MAP2K6 (compound 10 µM, n = 3), 0.4 °C; on ABL1 (compound 10 µM, n = 3), 1.1 °C; at DYRK1A (compound 10 µM, n = 3), -0.7 °C. Moreover, the ΔTm at 10 µM was determined as 0.3 °C on PAK4 (compound 10 µM, n = 3); 2.4 °C on DAPK3 (compound 10 µM, n = 3); 0.6 °C on STK10 (compound 10 µM, n = 3); 0 °C at MAP2K1 (compound 10 µM, n = 3). In the test on primary IMCD cells (setting [1]), the “inhibition … to the plasma membrane” value was “no significant difference between resting and AVP-stimulated cells”. Besides, the IC50 was determined as 44.5 µM on AURKC (setting [3]) and 0.558 µM at AURKA (NanoBRET, n = 2, mean, Figure 6B, read-out: affinity to intracellular AURKA).

As to `CCN1CCN(C(=O)Cc2ccc(Nc3ncc(F)c(Nc4ccc(C(=O)Nc5ccccc5)cc4)n3)cc2)CC1` [ERJ2-11], the ΔTm at 10 µM is 4.9 °C on GAK (compound 10 µM, n = 3); 2.6 °C at STK38L (compound 10 µM, n = 3); 3.8 °C on MAPK8 (compound 10 µM, n = 3); 0.7 °C at MAP2K6 (compound 10 µM, n = 3); 3.6 °C on ABL1 (compound 10 µM, n = 3); -0.6 °C on DYRK1A (compound 10 µM, n = 3). For the same compound, the ΔTm at 10 µM was 1.1 °C at PAK4 (compound 10 µM, n = 3); 3.5 °C at DAPK3 (compound 10 µM, n = 3); 4.8 °C on STK10 (compound 10 µM, n = 3); 0 °C at MAP2K1 (compound 10 µM, n = 3). In addition, the “AQP2 fluorescence intensity ratio compared to DMSO-treated control cells” value in the test on primary IMCD cells (compound 20 µM, 1 h) is listed as “significant decrease”. Besides, in the test on primary IMCD cells (setting [1]), the “inhibition … to the plasma membrane” value was “no significant difference between resting and AVP-stimulated cells”. Besides, the IC50 at AURKC (setting [3]) was determined as 46 µM; on AURKA (setting [2]) it was 0.767 µM.
